{"source": "ChEMBL document CHEMBL5380876", "about": "“Non-fused imidazole-biphenyl analogs repress triple-negative breast cancer growth by mainly stabilizing the c-MYC G-quadruplex via a multi-site binding mode” (Bioorg Med Chem, 2023)", "key": {"Quadruplex DNA [1]": {"test_system": "Quadruplex DNA", "assay": "Stabilization of c-MYC G4 quadruplex DNA (unknown origin) assessed as change in temperature incubated for 2 hrs in presence of duplex DNA by FRET assay", "assay_type": "nucleic-acid assay"}, "KYSE-30": {"test_system": "KYSE-30", "assay": "Cytotoxicity against human KYSE-30 cells assessed as reduction in cell viability by CCK8 assay", "assay_type": "functional, cell-based"}, "MDA-MB-231 [2]": {"test_system": "MDA-MB-231", "assay": "Induction of cell cycle arrest in human MDA-MB-231 cells assessed as accumulation of cells at G0/G1 phase at 2 uM incubated for 24 hrs by propidium iodide staining based flow cytometry analysis (reference value: 66.35%)", "assay_type": "functional"}, "MDA-MB-231 [3]": {"test_system": "MDA-MB-231", "assay": "Induction of cell cycle arrest in human MDA-MB-231 cells assessed as accumulation of cells at sub-G1 phase at 4 uM incubated for 24 hrs by propidium iodide staining based flow cytometry analysis (reference value: 0.57%)", "assay_type": "functional"}, "MDA-MB-231 [4]": {"test_system": "MDA-MB-231", "assay": "Induction of autophagy in human MDA-MB-231 cells assessed as aggregation of p62 protein expression level at 1 to 4 uM incubated for 24 hrs by Western blot analysis", "assay_type": "functional, cell-based", "conditions": "dose 1-4 µM"}, "MDA-MB-231 [5]": {"test_system": "MDA-MB-231", "assay": "Inhibition of cell migration in human MDA-MB-231 cells assessed as reduction in migration at 1 to 4 uM measured after 24 hrs by transwell migration assay", "assay_type": "functional, cell-based", "conditions": "dose 1-4 µM"}, "MDA-MB-231 [6]": {"test_system": "MDA-MB-231", "assay": "Induction of autophagy in human MDA-MB-231 cells assessed as conversion of LC3B-I to LC3B-II at 1 to 4 uM incubated for 24 hrs by Western blot analysis", "assay_type": "functional, cell-based", "conditions": "dose 1-4 µM"}, "HEK293": {"test_system": "HEK293", "assay": "Downregulation of c-MYC expression in human HEK293 cells transfected with psiCHECK2 luciferase plasmid at 1 to 4 uM incubated for 24 hrs by dual luciferase reporter assay", "assay_type": "functional, cell-based", "conditions": "dose 1-4 µM"}, "MDA-MB-231 [7]": {"test_system": "MDA-MB-231", "assay": "Induction of cell cycle arrest in human MDA-MB-231 cells assessed as accumulation of cells at G2/M phase at 4 uM incubated for 24 hrs by propidium iodide staining based flow cytometry analysis (reference value: 17.58%)", "assay_type": "functional"}, "[8]": {"assay": "Toxicity in BALB/c mouse xenografted with human MDA-MB-231 cells assessed as discomfort at 5 mg/kg, ip administered every other day for 20 days and measured every 4 days", "assay_type": "organism-based", "conditions": "in vivo, 480 h, time 20 day"}, "Quadruplex DNA [9]": {"biological_target": "Quadruplex DNA", "assay": "Binding affinity to c-MYC G4 quadraplex DNA (unknown origin) assessed as dissociation constant by fluorescence titration based analysis", "assay_type": "nucleic-acid assay"}, "MDA-MB-231 [10]": {"test_system": "MDA-MB-231", "assay": "Induction of apoptosis in human MDA-MB-231 cells assessed as increase in late apoptotic cells at 1 to 4 uM incubated for 24 hrs by Annexin-V FITC/PI double staining based flow cytometry analysis", "assay_type": "functional, cell-based", "conditions": "dose 1-4 µM"}, "MDA-MB-231 [11]": {"test_system": "MDA-MB-231", "assay": "Induction of cell cycle arrest in human MDA-MB-231 cells assessed as upregulation of p21 accumulation at 1 to 4 uM measured after 24 hrs by Western blot analysis", "assay_type": "functional, cell-based", "conditions": "dose 1-4 µM"}, "MDA-MB-231 [12]": {"test_system": "MDA-MB-231", "assay": "Antitumor activity against human MDA-MB-231 cells xenografted in BALB/c nude mouse assessed as reduction in tumor weight at 5 mg/kg, ip administered every other day for 20 days and measured every 4 days", "assay_type": "functional, organism-based", "conditions": "time 20.0 day"}, "Quadruplex DNA [13]": {"test_system": "Quadruplex DNA", "assay": "Stabilization of c-MYC G4 quadruplex DNA (unknown origin) assessed as change in temperature incubated for 2 hrs in presence of telomer by FRET assay", "assay_type": "nucleic-acid assay"}, "[14]": {"assay": "Toxicity in BALB/c mouse xenografted with human MDA-MB-231 cells assessed as distress at 5 mg/kg, ip administered every other day for 20 days and measured every 4 days", "assay_type": "organism-based", "conditions": "in vivo, 480 h, time 20 day"}, "[15]": {"assay": "Toxicity in BALB/c mouse xenografted with human MDA-MB-231 cells assessed as effect on heart at 5 mg/kg, ip administered every other day for 20 days and measured every 4 days", "assay_type": "organism-based", "conditions": "in vivo, 480 h, time 20 day"}, "[16]": {"assay": "Toxicity in BALB/c mouse xenografted with human MDA-MB-231 cells assessed as effect on spleen at 5 mg/kg, ip administered every other day for 20 days and measured every 4 days", "assay_type": "organism-based", "conditions": "in vivo, 480 h, time 20 day"}, "MDA-MB-231 [17]": {"test_system": "MDA-MB-231", "assay": "Antitumor activity against human MDA-MB-231 cells xenografted in BALB/c mouse assessed as reduction in c-MYC expression at 5 mg/kg, ip administered every other day for 20 days and measured every 4 days by immunohistochemistry analysis", "assay_type": "functional, organism-based", "conditions": "time 20.0 day"}, "MDA-MB-231 [18]": {"test_system": "MDA-MB-231", "assay": "Antitumor activity against human MDA-MB-231 cells xenografted in BALB/c nude mouse assessed as reduction in tumor volume at 5 mg/kg, ip administered every other day for 20 days and measured every 4 days", "assay_type": "functional, organism-based", "conditions": "time 20.0 day"}, "[19]": {"assay": "Toxicity in BALB/c mouse xenografted with human MDA-MB-231 cells assessed as effect on liver at 5 mg/kg, ip administered every other day for 20 days and measured every 4 days", "assay_type": "organism-based", "conditions": "in vivo, 480 h, time 20 day"}, "Quadruplex DNA [20]": {"test_system": "Quadruplex DNA", "assay": "Stabilization of c-MYC G4 quadruplex DNA Pu22 (unknown origin) assessed as temperature at which 50% protein unfold by circular dichroism melting assay", "assay_type": "nucleic-acid assay"}, "[21]": {"assay": "Toxicity in BALB/c mouse xenografted with human MDA-MB-231 cells assessed as effect on kidney at 5 mg/kg, ip administered every other day for 20 days and measured every 4 days", "assay_type": "organism-based", "conditions": "in vivo, 480 h, time 20 day"}, "MDA-MB-231 [22]": {"test_system": "MDA-MB-231", "assay": "Induction of apoptosis in human MDA-MB-231 cells assessed as decrease in necrotic cells at 1 to 4 uM incubated for 24 hrs by Annexin-V FITC/PI double staining based flow cytometric analysis", "assay_type": "functional, cell-based", "conditions": "dose 1-4 µM"}, "MDA-MB-231 [23]": {"test_system": "MDA-MB-231", "assay": "Upregulation of phosphorylated ATM in human MDA-MB-231 cells at 1 to 4 uM measured after 24 hrs by Western blot analysis", "assay_type": "functional, cell-based", "conditions": "dose 1-4 µM"}, "Quadruplex DNA [24]": {"test_system": "Quadruplex DNA", "assay": "Stabilization of c-MYC G4 quadruplex DNA (unknown origin) assessed as change in temperature incubated for 2 hrs in presence of HRAS by FRET assay", "assay_type": "nucleic-acid assay"}, "Quadruplex DNA [25]": {"test_system": "Quadruplex DNA", "assay": "Stabilization of c-MYC G4 quadruplex DNA (unknown origin) assessed as change in temperature incubated for 2 hrs in presence of KRAS by FRET assay", "assay_type": "nucleic-acid assay"}, "MDA-MB-231 [26]": {"test_system": "MDA-MB-231", "assay": "Induction of cell cycle arrest in human MDA-MB-231 cells assessed as downregulation of cyclin B expression at 1 to 4 uM incubated for 24 hrs by Western blot analysis", "assay_type": "functional, cell-based", "conditions": "dose 1-4 µM"}, "[27]": {"assay": "Cytotoxicity against human MCF-10A cells assessed as inhibition of cell proliferation by CCK-8 assay", "assay_type": "toxicity, cell-based"}, "MDA-MB-231 [28]": {"test_system": "MDA-MB-231", "assay": "Induction of apoptosis in human MDA-MB-231 cells assessed as caspase-3 cleavage at 1 to 4 uM incubated for 24 hrs by Western blot analysis", "assay_type": "functional, cell-based", "conditions": "dose 1-4 µM"}, "MDA-MB-231 [29]": {"test_system": "MDA-MB-231", "assay": "Induction of cell cycle arrest in human MDA-MB-231 cells assessed as accumulation of cells at S phase at 1 uM incubated for 24 hrs by propidium iodide staining based flow cytometry analysis (reference value: 15.50%)", "assay_type": "functional"}, "dsDNA": {"test_system": "dsDNA", "assay": "Stabilization of duplex DNA (unknown origin) assessed as change in melting temperature by circular dichroism melting assay"}}, "note": "The source made the active and inactive calls. The rule behind the calls is not given here.", "data": [{"compound": "CN1CCN(c2ccc(-c3nc(-c4ccc(-c5ccc(C(F)(F)F)cc5)cc4)[nH]c3-c3ccc(N4CCN(C)CC4)cc3)cc2)CC1", "values": [{"measurement": "Activity", "setting": "Quadruplex DNA [1]", "value": "Active"}, {"measurement": "IC50", "setting": "KYSE-30", "value": 1310, "unit": "nM"}, {"measurement": "Activity", "setting": "MDA-MB-231 [2]", "value": 76.42, "unit": "%"}, {"measurement": "Activity", "setting": "MDA-MB-231 [3]", "value": 44.98, "unit": "%"}, {"measurement": "Activity", "setting": "MDA-MB-231 [4]", "value": "Active"}, {"measurement": "inhibition", "setting": "MDA-MB-231 [5]", "value": "Active"}, {"measurement": "Activity", "setting": "MDA-MB-231 [6]", "value": "Active"}, {"measurement": "Activity", "setting": "HEK293", "value": "Active"}, {"measurement": "Activity", "setting": "MDA-MB-231 [7]", "value": 30.7, "unit": "%"}, {"measurement": "Activity", "setting": "[8]", "value": "Non-Toxic"}, {"measurement": "Kd", "setting": "Quadruplex DNA [9]", "value": 2700, "unit": "nM"}, {"measurement": "Activity", "setting": "MDA-MB-231 [10]", "value": "Active"}, {"measurement": "Activity", "setting": "MDA-MB-231 [11]", "value": "Active"}, {"measurement": "Activity", "setting": "MDA-MB-231 [12]", "value": "Active"}, {"measurement": "Activity", "setting": "Quadruplex DNA [13]", "value": "Active"}, {"measurement": "Activity", "setting": "[14]", "value": "Non-Toxic"}, {"measurement": "Activity", "setting": "[15]", "value": "Non-Toxic"}, {"measurement": "Activity", "setting": "[16]", "value": "Non-Toxic"}, {"measurement": "Activity", "setting": "MDA-MB-231 [17]", "value": "Active"}, {"measurement": "Activity", "setting": "MDA-MB-231 [18]", "value": "Active"}, {"measurement": "Activity", "setting": "[19]", "value": "Non-Toxic"}, {"measurement": "T", "setting": "Quadruplex DNA [20]", "value": 34.6, "unit": "°C"}, {"measurement": "Activity", "setting": "[21]", "value": "Non-Toxic"}, {"measurement": "Activity", "setting": "MDA-MB-231 [22]", "value": "inactive"}, {"measurement": "Activity", "setting": "MDA-MB-231 [23]", "value": "Active"}, {"measurement": "Activity", "setting": "Quadruplex DNA [24]", "value": "Active"}, {"measurement": "Activity", "setting": "Quadruplex DNA [25]", "value": "Active"}, {"measurement": "Activity", "setting": "MDA-MB-231 [26]", "value": "Active"}, {"measurement": "IC50", "setting": "[27]", "value": 8700, "unit": "nM"}, {"measurement": "Activity", "setting": "MDA-MB-231 [28]", "value": "Active"}, {"measurement": "Activity", "setting": "MDA-MB-231 [29]", "value": 11.14, "unit": "%"}, {"measurement": "ΔTm", "setting": "dsDNA", "value": 0, "unit": "°C"}]}]}
